Entries after “also recorded” stand apart in the source; their conditions may differ. Blank lines part the entries; values can stand above or below the compound they belong to.
Key:
[1] = cited from earlier work
[2] = system: Actinomyces naeslundii; assay: Antibacterial activity by optical density of cultures with serial dilution of the compounds; type: cell-based; conditions: pH 5.9, 18 hours
Description: (§1) The antibacterial activities of three complexes against six oral bacteria at pH 5.9 were tested by measuring the optical density (OD, at 600 nm) of the cultures in […] of different bacteria with the presence of serial dilution of the compounds (10^−2M-7.81×10^−5M) after culture at 5% CO2 under 37° C. for 18 hours. The midpoint concentration (IC 50) was determined at the concentration that corresponds to 50% of maximum OD. The minimum inhibition concentration (MIC) was determined at the concentration that corresponds to 10% or less of OD of the control (without any gallium compound).

[3] = system: Streptococcus sobrinus; assay: as above; type: cell-based; conditions: pH 5.9, 18 hours
Description: as §1

[4] = system: Pseudomonas aeruginosa; assay: as above; type: cell-based; conditions: pH 5.9, 18 hours
Description: as §1

[5] = system: Streptococcus pneuomoniae; assay: as above; type: cell-based; conditions: pH 5.9, 18 hours
Description: as §1

[6] = system: Streptococcus mutans; assay: as above; type: cell-based; conditions: pH 5.9, 18 hours
Description: as §1

[7] = system: Lactobacillus casei; assay: as above; type: cell-based; conditions: pH 5.9, 18 hours
Description: as §1

[8] = Stability of aqueous gallium complex solutions with pH; type: physicochemical; conditions: solution of 2×10^−3 M
[9] = Gallium release from composite discs, spectrophotometric method; conditions: 15% chelate in the monomer; deionized water pH=7.0; 4 days (FIG. 13)
[10] = 37° C., 5% CO2, OD at 600 nm, read-out: Midpoint concentration (IC50)
[11] = 10% or less of OD of the control

SMILES: [Ga+3].[Ga+3].[O-2].[O-2].[O-2] [Ga2O3, gallium oxide]
solubility in water (words) [1]: insoluble in water

SMILES: [Ga+3].[OH-].[OH-].[OH-] [Ga(OH)3]
solubility in water (words) [1]: sparingly soluble; also recorded: low solubility in water
Ksp=[Ga^3+][OH^−]^3 ([1]; in water): 3.28×10^−36

SMILES: [F][Ga]([F])[F] [GaF3, gallium trifluoride]
solubility in water [1]: 15.8 µM
solubility in water (words) [1]: sparingly soluble

IC50 [2, 10]: 1880 µM
Minimum Inhibition Concentration (MIC) [2, 11]: 2500 µM
IC50 [3, 10]: 1250 µM
Minimum Inhibition Concentration (MIC) [3, 11]: 5000 µM
IC50 [4, 10]: > 1880 µM
Minimum Inhibition Concentration (MIC) [4, 11]: 50 µM
IC50 [5, 10]: 1880 µM
Minimum Inhibition Concentration (MIC) [5, 11]: 5000 µM
IC50 [6, 10]: 1250 µM
Minimum Inhibition Concentration (MIC) [6, 11]: 2500 µM
IC50 [7, 10]: > 5000 µM
Minimum Inhibition Concentration (MIC) [7, 11]: >10^−2M
pH up to which the solution is stable [8]: ≤ 5.9
SMILES: [F][Ga-2]([F])([F])([F])[F].[Na+].[Na+] [Na2GaF5]

SMILES: C=C(C)C(=O)OCCOc1ccc(C(C)(CCC(=O)NCCCCC(C(=O)[O-])N(CC(=O)[O-])CC(=O)O)c2ccc(OCCOC(=O)C(=C)C)cc2)cc1.F.[F-].[Ga+3] (stereo not shown) [ternary gallium fluoride chelate, monogallium(III) mono(2,2′-((5-(4,4-bis(4-(2-(methacryloyloxy)ethoxy)phenyl)pentanamido)-1-carboxylatopentyl)azanediyl)diacetate) monofluoride hydrofluoride]
amount of gallium ion released compared with those without the chelate [9]: nearly double
